{"source": "the supplement of paper PMC10307832", "assay_in_all_cases": "relative viability (nuclei count vs DMSO), 5 days (fraction); higher = more cells survive", "key": {"[1]": {"system": "ABC-1", "outline": "(§1)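 Lung cancer cell lines were seeded in 1536-well plates and dosed by pin tool the next day, with either a single drug or a fixed anchor-drug dose combined with five library-drug doses (not always all listed) spaced in √10 steps. Five days later, one step fixed the cells and stained their nuclei (final 0.05% Triton X-100, 1% formaldehyde, 1 ug/ml Hoechst), and nuclei were counted on 4× images. Relative viability is the nuclei count in treated wells divided by the count in vehicle wells, and each value is the median of duplicate plates.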"}, "[2]": {"system": "HCC-78", "outline": "as §1"}, "[3]": {"system": "HOP-62", "outline": "as §1"}, "[4]": {"system": "LCLC-97TM1", "outline": "as §1"}, "[5]": {"system": "LOU-NH91", "outline": "as §1"}, "[6]": {"system": "NCI-H1355", "outline": "as §1"}, "[7]": {"system": "NCI-H1437", "outline": "as §1"}, "[8]": {"system": "NCI-H1755", "outline": "as §1"}, "[9]": {"system": "NCI-H1792", "outline": "as §1"}, "[10]": {"system": "NCI-H2009", "outline": "as §1"}, "[11]": {"system": "NCI-H2023", "outline": "as §1"}, "[12]": {"system": "NCI-H2085", "outline": "as §1"}, "[13]": {"system": "NCI-H2170", "outline": "as §1"}, "[14]": {"system": "NCI-H23", "outline": "as §1"}, "[15]": {"system": "NCI-H2405", "outline": "as §1"}, "[16]": {"system": "NCI-H322M", "outline": "as §1"}, "[17]": {"system": "NCI-H441", "outline": "as §1"}, "[18]": {"system": "NCI-H650", "outline": "as §1"}, "[19]": {"system": "NCI-H727", "outline": "as §1"}, "[20]": {"system": "RERF-LC-KJ", "outline": "as §1"}, "[21]": {"system": "SK-MES-1", "outline": "as §1"}, "[22]": {"system": "UMC-11", "outline": "as §1"}}, "data": [{"smiles": "Cc1cnc(-c2cnc(NCCNc3ccc(C#N)cn3)nc2-c2ccc(Cl)cc2Cl)[nH]1", "note": "+ Cc1nc(NC(=O)N2CCC[C@H]2C(N)=O)sc1-c1ccnc(C(C)(C)C(F)(F)F)c1 [Alpelisib] (partner 2 µM)", "values": [{"measurement": "relative viability", "setting": "[1]; first compound 0.08 µM", "result": 0.961}, {"measurement": "relative viability", "setting": "[1]; first compound 0.253 µM", "result": 0.867}, {"measurement": "relative viability", "setting": "[1]; first compound 0.8 µM", "result": 1.02}, {"measurement": "relative viability", "setting": "[1]; first compound 2.53 µM", "result": 0.814}, {"measurement": "relative viability", "setting": "[2]; first compound 0.08 µM", "result": 0.401}, {"measurement": "relative viability", "setting": "[2]; first compound 0.253 µM", "result": 0.285}, {"measurement": "relative viability", "setting": "[2]; first compound 0.8 µM", "result": 0.308}, {"measurement": "relative viability", "setting": "[2]; first compound 2.53 µM", "result": 0.333}, {"measurement": "relative viability", "setting": "[3]; first compound 0.08 µM", "result": 1}, {"measurement": "relative viability", "setting": "[3]; first compound 0.253 µM", "result": 0.902}, {"measurement": "relative viability", "setting": "[3]; first compound 0.8 µM", "result": 0.958}, {"measurement": "relative viability", "setting": "[3]; first compound 2.53 µM", "result": 1.14}, {"measurement": "relative viability", "setting": "[4]; first compound 0.08 µM", "result": 0.28}, {"measurement": "relative viability", "setting": "[4]; first compound 0.253 µM", "result": 0.176}, {"measurement": "relative viability", "setting": "[4]; first compound 0.8 µM", "result": 0.251}, {"measurement": "relative viability", "setting": "[4]; first compound 2.53 µM", "result": 0.323}, {"measurement": "relative viability", "setting": "[5]; first compound 0.08 µM", "result": 0.852}, {"measurement": "relative viability", "setting": "[5]; first compound 0.253 µM", "result": 0.729}, {"measurement": "relative viability", "setting": "[5]; first compound 0.8 µM", "result": 0.675}, {"measurement": "relative viability", "setting": "[5]; first compound 2.53 µM", "result": 0.715}, {"measurement": "relative viability", "setting": "[6]; first compound 0.08 µM", "result": 0.801}, {"measurement": "relative viability", "setting": "[6]; first compound 0.253 µM", "result": 0.752}, {"measurement": "relative viability", "setting": "[6]; first compound 0.8 µM", "result": 0.786}, {"measurement": "relative viability", "setting": "[6]; first compound 2.53 µM", "result": 0.783}, {"measurement": "relative viability", "setting": "[7]; first compound 0.08 µM", "result": 0.962}, {"measurement": "relative viability", "setting": "[7]; first compound 0.253 µM", "result": 0.937}, {"measurement": "relative viability", "setting": "[7]; first compound 0.8 µM", "result": 0.909}, {"measurement": "relative viability", "setting": "[7]; first compound 2.53 µM", "result": 0.918}, {"measurement": "relative viability", "setting": "[8]; first compound 0.08 µM", "result": 0.998}, {"measurement": "relative viability", "setting": "[8]; first compound 0.253 µM", "result": 0.851}, {"measurement": "relative viability", "setting": "[8]; first compound 0.8 µM", "result": 0.901}, {"measurement": "relative viability", "setting": "[8]; first compound 2.53 µM", "result": 0.896}, {"measurement": "relative viability", "setting": "[9]; first compound 0.08 µM", "result": 0.736}, {"measurement": "relative viability", "setting": "[9]; first compound 0.253 µM", "result": 0.639}, {"measurement": "relative viability", "setting": "[9]; first compound 0.8 µM", "result": 0.625}, {"measurement": "relative viability", "setting": "[9]; first compound 2.53 µM", "result": 0.674}, {"measurement": "relative viability", "setting": "[10]; first compound 0.08 µM", "result": 1.13}, {"measurement": "relative viability", "setting": "[10]; first compound 0.253 µM", "result": 1.14}, {"measurement": "relative viability", "setting": "[10]; first compound 0.8 µM", "result": 1.26}, {"measurement": "relative viability", "setting": "[10]; first compound 2.53 µM", "result": 1.05}, {"measurement": "relative viability", "setting": "[11]; first compound 0.08 µM", "result": 0.574}, {"measurement": "relative viability", "setting": "[11]; first compound 0.253 µM", "result": 0.656}, {"measurement": "relative viability", "setting": "[11]; first compound 0.8 µM", "result": 0.747}, {"measurement": "relative viability", "setting": "[11]; first compound 2.53 µM", "result": 1.12}, {"measurement": "relative viability", "setting": "[12]; first compound 0.08 µM", "result": 1.13}, {"measurement": "relative viability", "setting": "[12]; first compound 0.253 µM", "result": 1.03}, {"measurement": "relative viability", "setting": "[12]; first compound 0.8 µM", "result": 0.94}, {"measurement": "relative viability", "setting": "[12]; first compound 2.53 µM", "result": 0.961}, {"measurement": "relative viability", "setting": "[13]; first compound 0.08 µM", "result": 0.825}, {"measurement": "relative viability", "setting": "[13]; first compound 0.253 µM", "result": 0.702}, {"measurement": "relative viability", "setting": "[13]; first compound 0.8 µM", "result": 0.757}, {"measurement": "relative viability", "setting": "[13]; first compound 2.53 µM", "result": 0.778}, {"measurement": "relative viability", "setting": "[14]; first compound 0.08 µM", "result": 0.819}, {"measurement": "relative viability", "setting": "[14]; first compound 0.253 µM", "result": 0.591}, {"measurement": "relative viability", "setting": "[14]; first compound 0.8 µM", "result": 0.818}, {"measurement": "relative viability", "setting": "[14]; first compound 2.53 µM", "result": 0.72}, {"measurement": "relative viability", "setting": "[15]; first compound 0.08 µM", "result": 1.09}, {"measurement": "relative viability", "setting": "[15]; first compound 0.253 µM", "result": 0.793}, {"measurement": "relative viability", "setting": "[15]; first compound 0.8 µM", "result": 0.811}, {"measurement": "relative viability", "setting": "[15]; first compound 2.53 µM", "result": 0.592}, {"measurement": "relative viability", "setting": "[16]; first compound 0.08 µM", "result": 0.773}, {"measurement": "relative viability", "setting": "[16]; first compound 0.253 µM", "result": 0.754}, {"measurement": "relative viability", "setting": "[16]; first compound 0.8 µM", "result": 0.709}, {"measurement": "relative viability", "setting": "[16]; first compound 2.53 µM", "result": 0.733}, {"measurement": "relative viability", "setting": "[17]; first compound 0.08 µM", "result": 0.759}, {"measurement": "relative viability", "setting": "[17]; first compound 0.253 µM", "result": 0.668}, {"measurement": "relative viability", "setting": "[17]; first compound 0.8 µM", "result": 0.858}, {"measurement": "relative viability", "setting": "[17]; first compound 2.53 µM", "result": 0.7}, {"measurement": "relative viability", "setting": "[18]; first compound 0.08 µM", "result": 1.07}, {"measurement": "relative viability", "setting": "[18]; first compound 0.253 µM", "result": 1.06}, {"measurement": "relative viability", "setting": "[18]; first compound 0.8 µM", "result": 1.17}, {"measurement": "relative viability", "setting": "[18]; first compound 2.53 µM", "result": 1.11}, {"measurement": "relative viability", "setting": "[19]; first compound 0.08 µM", "result": 0.505}, {"measurement": "relative viability", "setting": "[19]; first compound 0.253 µM", "result": 0.593}, {"measurement": "relative viability", "setting": "[19]; first compound 0.8 µM", "result": 0.566}, {"measurement": "relative viability", "setting": "[19]; first compound 2.53 µM", "result": 0.482}, {"measurement": "relative viability", "setting": "[20]; first compound 0.08 µM", "result": 0.984}, {"measurement": "relative viability", "setting": "[20]; first compound 0.253 µM", "result": 0.746}, {"measurement": "relative viability", "setting": "[20]; first compound 0.8 µM", "result": 0.775}, {"measurement": "relative viability", "setting": "[20]; first compound 2.53 µM", "result": 0.916}, {"measurement": "relative viability", "setting": "[21]; first compound 0.08 µM", "result": 1.01}, {"measurement": "relative viability", "setting": "[21]; first compound 0.253 µM", "result": 0.888}, {"measurement": "relative viability", "setting": "[21]; first compound 2.53 µM", "result": 0.911}, {"measurement": "relative viability", "setting": "[22]; first compound 0.08 µM", "result": 0.844}, {"measurement": "relative viability", "setting": "[22]; first compound 0.253 µM", "result": 0.903}, {"measurement": "relative viability", "setting": "[22]; first compound 0.8 µM", "result": 1.02}, {"measurement": "relative viability", "setting": "[22]; first compound 2.53 µM", "result": 0.908}]}]}
